Laboratory results published in ChEMBL document CHEMBL4507291 (2021).

How the values were obtained:
[1] = molecular target: MAO-B (amine oxidase [flavin-containing] B) (Homo sapiens, UniProt P27338); experiment: Inhibition of Monoamine Oxidase MAO-B at compound concentration of 10.0 uM in the Eurofins-Panlabs enzyme assay (Eurofins_assay_140120); parameters: substrate with concentration 50 uM Kynuramine, incubation time 60 min, incubation temperature 37 C; details: recombinant human MAO-B expressed in insect Hi5 cells, probe kynuramine (50 uM), compound concentration 10 uM
Chain of MAO-B (amine oxidase [flavin-containing] B) (P27338 whole entry): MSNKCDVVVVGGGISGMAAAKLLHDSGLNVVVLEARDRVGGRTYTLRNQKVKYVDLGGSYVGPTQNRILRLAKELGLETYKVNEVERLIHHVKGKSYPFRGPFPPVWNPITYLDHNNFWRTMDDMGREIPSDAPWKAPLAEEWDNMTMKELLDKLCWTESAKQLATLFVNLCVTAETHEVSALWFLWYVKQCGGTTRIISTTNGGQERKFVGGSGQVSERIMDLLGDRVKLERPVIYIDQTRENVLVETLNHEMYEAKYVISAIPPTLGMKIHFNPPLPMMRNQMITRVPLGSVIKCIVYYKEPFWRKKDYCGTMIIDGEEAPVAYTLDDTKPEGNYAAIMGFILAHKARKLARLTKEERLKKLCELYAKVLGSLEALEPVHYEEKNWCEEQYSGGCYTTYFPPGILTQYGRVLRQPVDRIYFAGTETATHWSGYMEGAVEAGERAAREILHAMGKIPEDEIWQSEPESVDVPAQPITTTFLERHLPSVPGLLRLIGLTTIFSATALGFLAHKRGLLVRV

[2] = molecular target: Calcium/calmodulin-dependent protein kinase type 1 (Homo sapiens) (UniProt Q14012); experiment: CAMK1 (CaMK1) Kinase screen; details: Compound concentration 1.0 uM
Chain of Calcium/calmodulin-dependent protein kinase type 1 (Homo sapiens) (Q14012 whole entry, looked up): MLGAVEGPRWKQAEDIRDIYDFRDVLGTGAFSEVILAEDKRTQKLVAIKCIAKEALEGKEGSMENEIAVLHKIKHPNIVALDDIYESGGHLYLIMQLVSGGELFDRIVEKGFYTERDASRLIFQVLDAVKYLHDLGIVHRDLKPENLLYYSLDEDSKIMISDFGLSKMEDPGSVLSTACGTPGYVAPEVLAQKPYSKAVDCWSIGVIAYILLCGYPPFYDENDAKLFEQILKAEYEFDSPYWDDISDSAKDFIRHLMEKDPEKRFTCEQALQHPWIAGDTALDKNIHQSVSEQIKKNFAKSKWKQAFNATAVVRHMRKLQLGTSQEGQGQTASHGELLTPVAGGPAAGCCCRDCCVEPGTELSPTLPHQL

[3] = molecular target: Tyrosine-protein kinase Yes (Homo sapiens) (UniProt P07947); experiment: YES1 Kinase screen; details: Compound concentration 1.0 uM
[4] = molecular target: T1, Inhibitor of nuclear factor kappa-B kinase subunit alpha (Homo sapiens) (UniProt O15111); experiment: CHUK (IKK alpha) Kinase screen; details: Compound concentration 1.0 uM
T1 sequence (whole entry): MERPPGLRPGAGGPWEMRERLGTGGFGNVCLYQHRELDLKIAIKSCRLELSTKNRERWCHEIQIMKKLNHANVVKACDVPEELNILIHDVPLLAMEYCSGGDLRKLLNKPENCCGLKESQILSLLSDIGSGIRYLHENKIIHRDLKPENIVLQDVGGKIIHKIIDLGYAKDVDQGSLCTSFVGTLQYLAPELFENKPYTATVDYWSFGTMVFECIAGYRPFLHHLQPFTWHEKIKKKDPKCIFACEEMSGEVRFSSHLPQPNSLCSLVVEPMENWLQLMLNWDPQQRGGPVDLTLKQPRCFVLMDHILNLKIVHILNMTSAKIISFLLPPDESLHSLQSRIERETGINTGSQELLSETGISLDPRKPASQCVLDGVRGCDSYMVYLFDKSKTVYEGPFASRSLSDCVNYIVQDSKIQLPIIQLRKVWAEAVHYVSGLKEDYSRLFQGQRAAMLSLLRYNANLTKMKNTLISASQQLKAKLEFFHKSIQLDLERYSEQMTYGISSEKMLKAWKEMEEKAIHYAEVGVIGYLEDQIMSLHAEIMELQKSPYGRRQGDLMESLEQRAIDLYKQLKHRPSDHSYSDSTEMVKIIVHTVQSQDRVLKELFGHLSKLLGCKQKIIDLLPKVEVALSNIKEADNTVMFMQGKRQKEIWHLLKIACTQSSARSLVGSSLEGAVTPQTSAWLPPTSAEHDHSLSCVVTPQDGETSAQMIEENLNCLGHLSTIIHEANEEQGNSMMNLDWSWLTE

[5] = molecular target: Sodium-dependent noradrenaline transporter (Homo sapiens, UniProt P23975); experiment: Inhibition of Transporter, Norepinephrine (NET) at compound concentration of 10.0 uM in the Eurofins-Panlabs radioligand binding assay (Eurofins_assay_204410); parameters: ligand concentration 0.2 nM, non-specific ligand with concentration 10 uM Desipramine, incubation time 3 h, incubation temperature 4 C
[6] = molecular target: Vasopressin V1a receptor (Homo sapiens) (UniProt P37288); details: Compound concentration 10.0 uM
[7] = molecular target: Myosin light chain kinase, smooth muscle (Homo sapiens) (UniProt Q15746); experiment: MYLK (MLCK) Kinase screen; details: Compound concentration 1.0 uM
[8] = molecular target: T2, G protein-coupled receptor kinase 3 (Homo sapiens) (UniProt P35626); experiment: ADRBK2 (GRK3) Kinase screen; details: Compound concentration 1.0 uM
T2 sequence (whole entry): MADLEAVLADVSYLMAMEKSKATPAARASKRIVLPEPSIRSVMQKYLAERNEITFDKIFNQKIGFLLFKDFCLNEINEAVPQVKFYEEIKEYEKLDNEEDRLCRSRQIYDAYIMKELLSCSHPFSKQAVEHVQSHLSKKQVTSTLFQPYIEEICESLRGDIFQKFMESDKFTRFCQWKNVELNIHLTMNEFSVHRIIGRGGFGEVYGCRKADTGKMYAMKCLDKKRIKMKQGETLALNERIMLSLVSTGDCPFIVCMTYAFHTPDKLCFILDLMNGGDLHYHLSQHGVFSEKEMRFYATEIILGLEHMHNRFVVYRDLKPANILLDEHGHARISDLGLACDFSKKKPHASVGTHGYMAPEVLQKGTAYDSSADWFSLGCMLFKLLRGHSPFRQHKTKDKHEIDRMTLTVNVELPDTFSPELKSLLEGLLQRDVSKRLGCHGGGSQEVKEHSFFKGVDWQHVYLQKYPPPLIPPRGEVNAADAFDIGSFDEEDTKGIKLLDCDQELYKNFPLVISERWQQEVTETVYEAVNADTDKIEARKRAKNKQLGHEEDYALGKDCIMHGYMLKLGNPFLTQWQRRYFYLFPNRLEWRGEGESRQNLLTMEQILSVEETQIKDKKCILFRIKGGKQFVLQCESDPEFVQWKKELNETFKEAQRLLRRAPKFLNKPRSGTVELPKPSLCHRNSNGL

[9] = molecular target: Calcium/calmodulin-dependent protein kinase type II subunit delta (Homo sapiens) (UniProt Q13557); experiment: CAMK2D (CaMKII delta) Kinase screen; details: Compound concentration 1.0 uM
[10] = molecular target: Activated CDC42 kinase 1 (Homo sapiens) (UniProt Q07912); experiment: TNK2 (ACK) Kinase screen; details: Compound concentration 1.0 uM
Chain of Activated CDC42 kinase 1 (Homo sapiens) (Q07912 whole entry, looked up): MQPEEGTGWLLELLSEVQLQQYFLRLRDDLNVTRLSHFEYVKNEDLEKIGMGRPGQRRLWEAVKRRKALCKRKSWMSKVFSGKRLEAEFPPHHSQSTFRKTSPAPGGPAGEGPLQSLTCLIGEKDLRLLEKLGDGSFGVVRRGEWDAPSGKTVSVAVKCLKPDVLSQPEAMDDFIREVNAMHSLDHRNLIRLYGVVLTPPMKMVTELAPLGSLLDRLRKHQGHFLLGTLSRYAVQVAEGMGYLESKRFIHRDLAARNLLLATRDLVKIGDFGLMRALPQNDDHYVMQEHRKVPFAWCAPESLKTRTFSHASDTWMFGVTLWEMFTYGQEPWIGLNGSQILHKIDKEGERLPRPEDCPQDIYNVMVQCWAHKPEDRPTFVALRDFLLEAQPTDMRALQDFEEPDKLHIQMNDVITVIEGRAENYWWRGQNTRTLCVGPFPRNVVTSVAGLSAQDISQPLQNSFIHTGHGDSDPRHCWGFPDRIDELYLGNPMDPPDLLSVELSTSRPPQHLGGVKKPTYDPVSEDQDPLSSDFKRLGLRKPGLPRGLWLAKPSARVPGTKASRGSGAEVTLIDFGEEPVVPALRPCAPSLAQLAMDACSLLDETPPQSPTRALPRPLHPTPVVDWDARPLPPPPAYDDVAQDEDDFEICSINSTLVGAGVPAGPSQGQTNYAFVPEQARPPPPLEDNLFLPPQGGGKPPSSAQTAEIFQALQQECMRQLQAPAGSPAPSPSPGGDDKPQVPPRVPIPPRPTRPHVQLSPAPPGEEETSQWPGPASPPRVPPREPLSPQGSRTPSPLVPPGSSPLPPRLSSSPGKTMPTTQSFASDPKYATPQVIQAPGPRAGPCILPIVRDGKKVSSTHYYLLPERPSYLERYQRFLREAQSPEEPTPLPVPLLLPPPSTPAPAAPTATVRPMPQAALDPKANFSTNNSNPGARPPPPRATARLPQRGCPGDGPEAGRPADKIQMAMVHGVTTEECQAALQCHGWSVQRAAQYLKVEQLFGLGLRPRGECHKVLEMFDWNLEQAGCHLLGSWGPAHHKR

[11] = test system: RAF proto-oncogene serine/threonine-protein kinase (Homo sapiens), P04049 [Y340D,Y341D]; experiment: RAF1 (cRAF) Y340D Y341D Kinase screen; details: Compound concentration 1.0 uM
Chain of RAF proto-oncogene serine/threonine-protein kinase (Homo sapiens), P04049 [Y340D,Y341D] (P04049 whole entry Y340D/Y341D): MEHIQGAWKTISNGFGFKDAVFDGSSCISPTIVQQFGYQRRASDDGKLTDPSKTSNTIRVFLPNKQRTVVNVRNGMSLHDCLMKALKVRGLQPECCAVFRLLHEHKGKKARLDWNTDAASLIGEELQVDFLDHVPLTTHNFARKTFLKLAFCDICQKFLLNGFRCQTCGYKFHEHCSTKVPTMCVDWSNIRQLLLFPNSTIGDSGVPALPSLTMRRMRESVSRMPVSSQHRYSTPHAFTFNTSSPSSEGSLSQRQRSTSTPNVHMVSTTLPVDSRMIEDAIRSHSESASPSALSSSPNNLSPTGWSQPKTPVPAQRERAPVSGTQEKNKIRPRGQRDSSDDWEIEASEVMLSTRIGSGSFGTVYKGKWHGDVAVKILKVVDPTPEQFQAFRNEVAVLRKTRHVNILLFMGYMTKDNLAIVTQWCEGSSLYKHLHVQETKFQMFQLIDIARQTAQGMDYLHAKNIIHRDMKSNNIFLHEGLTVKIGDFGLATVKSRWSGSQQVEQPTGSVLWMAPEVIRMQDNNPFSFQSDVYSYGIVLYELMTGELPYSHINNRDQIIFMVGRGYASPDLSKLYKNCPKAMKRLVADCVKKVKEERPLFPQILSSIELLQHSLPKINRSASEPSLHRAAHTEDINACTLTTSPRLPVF

[12] = molecular target: T3, Mitogen-activated protein kinase 12 (Homo sapiens) (UniProt P53778); experiment: MAPK12 (p38 gamma) Kinase screen; details: Compound concentration 1.0 uM
T3 sequence (whole entry): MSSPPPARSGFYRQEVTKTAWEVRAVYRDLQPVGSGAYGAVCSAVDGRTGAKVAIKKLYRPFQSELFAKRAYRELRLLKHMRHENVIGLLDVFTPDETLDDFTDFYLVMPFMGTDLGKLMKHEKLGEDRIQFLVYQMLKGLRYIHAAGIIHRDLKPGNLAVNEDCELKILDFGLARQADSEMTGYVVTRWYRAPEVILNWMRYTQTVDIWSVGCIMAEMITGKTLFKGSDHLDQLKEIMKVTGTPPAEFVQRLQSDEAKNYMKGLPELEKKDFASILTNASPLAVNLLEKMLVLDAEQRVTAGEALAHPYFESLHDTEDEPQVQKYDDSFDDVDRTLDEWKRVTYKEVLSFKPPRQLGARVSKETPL

[13] = molecular target: Calcium/calmodulin-dependent protein kinase type II subunit beta (Homo sapiens) (UniProt Q13554); experiment: CAMK2B (CaMKII beta) Kinase screen; details: Compound concentration 1.0 uM
[14] = molecular target: Platelet-derived growth factor receptor beta (Homo sapiens) (UniProt P09619); experiment: PDGFRB (PDGFR beta) Kinase screen; details: Compound concentration 1.0 uM
Chain of Platelet-derived growth factor receptor beta (Homo sapiens) (P09619 whole entry): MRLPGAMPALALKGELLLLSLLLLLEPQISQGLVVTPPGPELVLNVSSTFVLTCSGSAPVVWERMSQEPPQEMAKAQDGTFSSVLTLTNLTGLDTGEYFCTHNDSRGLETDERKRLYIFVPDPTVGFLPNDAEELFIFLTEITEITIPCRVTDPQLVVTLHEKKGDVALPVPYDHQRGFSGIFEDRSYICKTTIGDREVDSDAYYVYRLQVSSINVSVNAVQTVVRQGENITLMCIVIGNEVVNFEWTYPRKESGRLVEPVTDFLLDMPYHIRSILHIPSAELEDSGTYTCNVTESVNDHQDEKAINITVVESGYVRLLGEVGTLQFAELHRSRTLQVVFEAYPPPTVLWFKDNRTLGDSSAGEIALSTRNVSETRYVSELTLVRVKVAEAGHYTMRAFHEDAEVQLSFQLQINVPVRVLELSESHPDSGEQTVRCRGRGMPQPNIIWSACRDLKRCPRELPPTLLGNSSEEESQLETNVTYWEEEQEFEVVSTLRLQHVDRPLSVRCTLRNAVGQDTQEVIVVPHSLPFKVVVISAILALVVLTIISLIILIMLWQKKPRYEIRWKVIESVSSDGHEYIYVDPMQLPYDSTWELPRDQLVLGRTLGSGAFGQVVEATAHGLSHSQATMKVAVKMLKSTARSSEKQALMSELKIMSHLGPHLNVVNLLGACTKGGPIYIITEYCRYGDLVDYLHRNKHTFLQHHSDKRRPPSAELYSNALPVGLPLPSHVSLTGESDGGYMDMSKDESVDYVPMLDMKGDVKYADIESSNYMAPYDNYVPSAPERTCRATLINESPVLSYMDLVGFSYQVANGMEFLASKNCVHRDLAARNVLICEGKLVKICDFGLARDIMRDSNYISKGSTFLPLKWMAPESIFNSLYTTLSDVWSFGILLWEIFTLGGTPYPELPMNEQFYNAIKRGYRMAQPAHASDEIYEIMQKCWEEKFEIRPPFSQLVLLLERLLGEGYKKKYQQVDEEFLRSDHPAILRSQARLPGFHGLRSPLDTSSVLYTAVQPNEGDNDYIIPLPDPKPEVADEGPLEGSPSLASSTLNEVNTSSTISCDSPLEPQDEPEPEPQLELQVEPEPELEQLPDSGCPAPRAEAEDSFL

[15] = molecular target: Ribosomal protein S6 kinase beta-1 (Homo sapiens) (UniProt P23443); experiment: RPS6KB1 (p70S6K) Kinase screen; details: Compound concentration 1.0 uM
Chain of Ribosomal protein S6 kinase beta-1 (Homo sapiens) (P23443 whole entry, looked up): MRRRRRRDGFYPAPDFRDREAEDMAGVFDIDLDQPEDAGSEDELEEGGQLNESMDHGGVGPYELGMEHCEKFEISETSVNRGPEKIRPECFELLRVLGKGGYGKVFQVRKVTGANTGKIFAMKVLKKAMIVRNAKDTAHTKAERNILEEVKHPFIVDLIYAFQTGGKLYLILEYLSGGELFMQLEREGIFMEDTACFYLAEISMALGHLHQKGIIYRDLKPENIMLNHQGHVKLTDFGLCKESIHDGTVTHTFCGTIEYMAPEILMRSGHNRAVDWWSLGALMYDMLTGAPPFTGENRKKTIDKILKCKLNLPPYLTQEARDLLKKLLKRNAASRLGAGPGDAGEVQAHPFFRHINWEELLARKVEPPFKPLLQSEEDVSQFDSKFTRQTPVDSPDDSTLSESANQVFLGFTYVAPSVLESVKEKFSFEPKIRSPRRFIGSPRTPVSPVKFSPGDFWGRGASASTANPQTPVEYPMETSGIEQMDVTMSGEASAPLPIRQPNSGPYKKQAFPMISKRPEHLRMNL

[16] = molecular target: Homeodomain-interacting protein kinase 2 (Homo sapiens) (UniProt Q9H2X6); experiment: HIPK2 Kinase screen; details: Compound concentration 1.0 uM
[17] = molecular target: Dual specificity tyrosine-phosphorylation-regulated kinase 4 (Homo sapiens) (UniProt Q9NR20); experiment: DYRK4 Kinase screen; details: Compound concentration 1.0 uM
[18] = molecular target: Calcium/calmodulin-dependent protein kinase type II subunit alpha (Homo sapiens) (UniProt Q9UQM7); experiment: CAMK2A (CaMKII alpha) Kinase screen; details: Compound concentration 1.0 uM
Chain of Calcium/calmodulin-dependent protein kinase type II subunit alpha (Homo sapiens) (Q9UQM7 whole entry): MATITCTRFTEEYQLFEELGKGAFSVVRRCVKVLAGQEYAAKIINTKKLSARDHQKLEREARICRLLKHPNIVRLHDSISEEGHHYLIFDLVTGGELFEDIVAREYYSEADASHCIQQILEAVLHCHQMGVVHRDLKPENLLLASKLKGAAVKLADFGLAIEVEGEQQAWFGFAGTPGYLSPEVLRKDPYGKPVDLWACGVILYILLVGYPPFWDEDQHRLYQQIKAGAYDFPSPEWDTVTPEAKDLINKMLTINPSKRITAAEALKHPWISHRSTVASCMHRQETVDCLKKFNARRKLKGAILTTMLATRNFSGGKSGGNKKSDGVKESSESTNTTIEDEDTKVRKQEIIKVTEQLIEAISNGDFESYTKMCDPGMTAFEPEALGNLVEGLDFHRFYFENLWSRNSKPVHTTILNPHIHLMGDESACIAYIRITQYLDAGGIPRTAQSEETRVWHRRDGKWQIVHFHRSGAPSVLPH

[19] = molecular target: Eukaryotic elongation factor 2 kinase (Homo sapiens) (UniProt O00418); experiment: EEF2K Kinase screen; details: Compound concentration 1.0 uM
[20] = molecular target: Leucine-rich repeat serine/threonine-protein kinase 2 (Homo sapiens, UniProt Q5S007); experiment: LRRK2 Biochemical Assay

Structure (SMILES)	inhibition at 60 min, 10 µM [1]	inhibition [2] [%]	inhibition [3] [%]	inhibition [4] [%]	Ki [5] [µM]	inhibition [6] [%]	inhibition [7] [%]	inhibition [8] [%]	inhibition [9] [%]	inhibition [10] [%]	inhibition [11] [%]	inhibition [12] [%]	inhibition [13] [%]	inhibition [14] [%]	inhibition [15] [%]	inhibition [16] [%]	inhibition [17] [%]	inhibition [18] [%]	inhibition [19] [%]	IC50 [20]
C[C@@H]1CN(c2cc(-c3n[nH]c4ccc(OC5(C)CC5)cc34)ncn2)C[C@H](C)O1 [MLi-2]	28% (not active)	-4.05	5.77	8.17	3.79	-9	10.9	-0.166	23.9	22.9	2.98	1	12.6	6.43	5.26	5.33	1.74	7.96	4.28	–
C[C@@H]1CN(c2cc(-c3nn(C)c4ccc(OC5(C)CC5)cc34)ncn2)C[C@H](C)O1 [MLi-2-NC]	–	–	–	–	–	–	–	–	–	–	–	–	–	–	–	–	–	–	–	6.48 µM (not active)
